Laboratory results: patent US20090105278A1, “Selective inhibitors of human corticosteroid syntheses” (Universitat Des Saarlandes, priority 2004, published 2009)
Where a name gives a salt, the structure may show the parent alone.

Target: T1, human CYP17 (Homo sapiens, UniProt P05093)
T1 construct: made in house; host or cells: E. coli pJL17/OR (membrane fraction)
T1 sequence (P05093 1-508): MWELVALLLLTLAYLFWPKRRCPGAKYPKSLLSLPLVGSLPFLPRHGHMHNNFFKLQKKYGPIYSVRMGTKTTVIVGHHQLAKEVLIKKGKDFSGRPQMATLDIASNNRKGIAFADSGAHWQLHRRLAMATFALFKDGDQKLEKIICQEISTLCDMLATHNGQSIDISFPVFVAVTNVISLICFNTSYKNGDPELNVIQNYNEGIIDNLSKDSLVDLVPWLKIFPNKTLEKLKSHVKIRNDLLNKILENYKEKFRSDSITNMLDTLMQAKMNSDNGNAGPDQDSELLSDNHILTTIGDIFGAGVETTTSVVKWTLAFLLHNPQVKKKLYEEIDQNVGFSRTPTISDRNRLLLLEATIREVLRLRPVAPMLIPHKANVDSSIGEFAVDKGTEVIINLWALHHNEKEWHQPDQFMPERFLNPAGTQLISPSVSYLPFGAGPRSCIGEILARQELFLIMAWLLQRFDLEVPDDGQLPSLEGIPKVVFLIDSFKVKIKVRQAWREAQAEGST
Experiment: Percent inhibition of CYP17 (membrane fraction of E. coli pJL17/OR)
Assay type: biochemical
Conditions: E. coli which expresses human CYP17; 5 mg/ml protein; progesterone substrate 2.5 μM; inhibitor 2.5 μM; read-out: % Inhibition human CYP17
Description: The recombinantly altered E. coli strain pJL17/OR, in which human CYP17 and rat NADPH-P450-reductase were coexpressed, was grown and stored according to the method of Ehmer et al. (Ehmer, P. B. et al., J. Steroid Biochem. Mol. Biol. 75: 57-63 (2000)). For isolating the membrane fraction, 5 ml of the bacterial cell suspension with an OD578 of 50 was washed with phosphate buffer (0.05 M; pH 7.4; 1 mM MgCl2; 0.1 mM EDTA and 0.1 mM DTT). The bacteria were removed by centrifugation and resuspended in 10 ml of ice cold TES buffer (0.1 M tris-acetate; pH 7.8; 0.5 mM EDTA; 0.5 M sucrose). Four milligrams of lysozyme in 10 ml of ice cold water was added to obtain a final concentration of 0.2 mg/ml. This was followed by incubation for 30 minutes under continued shaking on ice. The spheroblasts were obtained by a renewed centrifugation step at 12,000 g for 10 min and again resuspended in 3 ml of ice cold phosphate buffer (composition see above, additionally 0.5 mM PMSF).
After freezing and thawing, the cells were lysed on ice with an ultrasonic disintegrator. The whole cells and the cell debris were centrifuged off at 3000 g for 7 min. The supernatant was again centrifuged at 50,000 g for 20 min at 4° C. A membrane pellet sedimented and was resuspended in 2 ml of phosphate buffer (composition see above) with […] by means of an Ultra-Turrax mixer. […] Aliquots with an approximate protein concentration of 5 mg/ml were stored at −70° C. until use.
Control incubations were performed in parallel with 5 μl DMSO without urea. The reaction was started by adding 50 μl of a membrane suspension diluted 1 to 5 in phosphate buffer (0.8 to 1 mg of protein per ml). After thoroughly mixing the components, the mixture was incubated at 37° C. for 30 min.
The steroids were extracted with 1 ml of EtOAc. […] After the centrifugation, 800 μl of the organic phase was removed, placed into a new vessel and evaporated to dryness. The samples were dissolved in 50 μl of a water-methanol mixture (1:1) and analyzed by HPLC. The substrate conversion was calculated from the ratio of the areas of the product peaks (17α-hydroxyprogesterone and 16α-hydroxyprogesterone) to that of the substrate peak. The activity of the inhibitors was calculated from the reduced substrate conversion after the addition of inhibitors in accordance with the following formula: […]

inhibition at 2.5 µM | SMILES
8% | C(=C1/CCc2ccccc21)/c1ccncc1 [Compound 2a, 4-[(E)-2,3-Dihydro-1H-indane-1-ylidenemethyl]pyridine Oxalate]

Target: T2, human placental CYP19 (Homo sapiens, UniProt P11511)
T2 construct: The enzyme was obtained from the microsome fraction of fresh human placenta; from tissue; host or cells: human placenta, microsomal fraction
T2 sequence (P11511 1-503): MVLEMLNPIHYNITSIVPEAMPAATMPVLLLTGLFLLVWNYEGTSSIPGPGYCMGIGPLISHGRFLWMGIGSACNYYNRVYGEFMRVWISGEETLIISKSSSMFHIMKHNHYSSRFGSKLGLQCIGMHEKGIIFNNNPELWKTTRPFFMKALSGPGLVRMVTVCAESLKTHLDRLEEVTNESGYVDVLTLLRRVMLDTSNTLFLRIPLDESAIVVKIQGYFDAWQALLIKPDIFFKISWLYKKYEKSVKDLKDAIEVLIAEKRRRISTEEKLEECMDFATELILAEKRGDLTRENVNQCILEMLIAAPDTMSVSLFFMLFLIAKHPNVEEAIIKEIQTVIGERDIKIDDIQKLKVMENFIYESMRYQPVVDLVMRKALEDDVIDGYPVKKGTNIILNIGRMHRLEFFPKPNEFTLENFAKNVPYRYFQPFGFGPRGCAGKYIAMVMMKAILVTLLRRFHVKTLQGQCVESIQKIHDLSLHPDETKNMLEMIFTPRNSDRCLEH
Experiment: IC50 of CYP19 (human placental microsomes)
Assay type: biochemical
Conditions: human placental CYP19; testosterone substrate 2.5 μM
Description: The isolated microsomes were suspended in a minimum volume of phosphate buffer (0.05 M; pH 7.4; […]). In addition, DTT (10 mM) and EDTA (1 mM) were added to protect the enzyme from degradation reactions.
[…] […] The compounds to be tested were dissolved in DMSO and diluted with buffer to the desired concentration. The final DMSO concentration of the control and inhibitor incubations was about 20%. Each vessel was preincubated in a water bath at 30° C. for 5 min. The reaction was started by adding the microsomal protein (0.1 mg). The total volume of each mixture was 200 μl. After 14 min, the reaction was quenched by adding 200 μl of ice cold 1 mM HgCl2 solution. Two hundred microliters of a 2% aqueous suspension of dextran-coated charcoal, DCC) was added for absorbing the steroids, and the vessels were shaken for 20 min. Thereafter, the charcoal was centrifuged off at 1500 g for 5 min. The radioactive water present in the supernatant (^3H2O) was assayed by scintillation measurement using an LKB-Wallac beta counter. The calculation of the IC50 values was effected by a semilogarithmic plot of the percent inhibition against the inhibitor concentration.

IC50 | SMILES
6.7 µM | C(=C1/CCc2ccccc21)/c1ccncc1 [Compound 2a, 4-[(E)-2,3-Dihydro-1H-indane-1-ylidenemethyl]pyridine Oxalate]

Tested on: not given
Experiment: not given
Conditions: not given

melting point | SMILES
234 °C | Fc1ccc2c(c1)CC/C2=C\c1cccc2cnccc12 (as salt: hydrochloride) [Compound 30a, 5-[(E)-(5-Fluoro-2,3-dihydro-1H-indane-1-ylidene)methyl]isoquinoline Hydrochloride]
231 °C | Cc1cccc2c1CC/C2=C\c1cccnc1 (as salt: hydrochloride) [Compound 23a, 3-[(E)-(4-Methyl-2,3-dihydro-1H-indane-1-ylidene)methyl]pyridine Hydrochloride]
167 °C | C(=C1/CCc2ccccc21)/c1ccncc1 (as salt: oxalate) [Compound 2a, 4-[(E)-2,3-Dihydro-1H-indane-1-ylidenemethyl]pyridine Oxalate]
241 °C | C(=C1c2ccccc2-c2ccccc21)c1cccnc1.Cl
217 °C | Cl.N#Cc1ccc2c(c1)/C(=C/c1cnc[nH]1)CCC2
243 °C | Brc1ccc2c(c1)CC/C2=C/c1cccnc1 (as salt: hydrochloride) [Compound 9b, 3-[(Z)-(5-Bromo-2,3-dihydro-1H-indane-1-ylidene)methyl]pyridine Hydrochloride]
197 °C | COc1cc2c(cc1OC)/C(=C/c1ccncc1)CCC2.Cl
241 °C | Brc1ccc2c(c1)CC/C2=C\c1cccnc1 (as salt: hydrochloride) [Compound 9a, 3-[(E)-(5-Bromo-2,3-dihydro-1H-indane-1-ylidene)methyl]pyridine Hydrochloride]
201 °C | Fc1ccc2c(c1)CC/C2=C/c1cccc2cnccc12 (as salt: hydrochloride) [Compound 30b, 5-[(Z)-(5-Fluoro-2,3-dihydro-1H-indane-1-ylidene)methyl]isoquinoline Hydrochloride]
197 °C | COc1cc2c(cc1OC)/C(=C/c1cccnc1)CCC2.Cl
238 °C | Clc1ccc2c(c1)CC/C2=C/c1cccnc1 (as salt: hydrochloride) [Compound 7b, 3-[(Z)-(5-Chloro-2,3-dihydro-1H-indane-1-ylidene)methyl]pyridine Hydrochloride]

SMILES | melting point
Fc1ccc2c(c1)CC/C2=C/c1cccnc1 (as salt: hydrochloride) [Compound 5b, 3-[(Z)-(5-Fluoro-2,3-dihydro-1H-indane-1-ylidene)methyl]pyridine Hydrochloride] | 245 °C
Fc1ccc2c(c1)CC/C2=C/c1ccncc1 (as salt: hydrochloride) [Compound 6b, 4-[(Z)-(5-Fluoro-2,3-dihydro-1H-indane-1-ylidene)methyl]pyridine Hydrochloride] | 223 °C
Fc1ccc2c(c1)CC/C2=C\c1cnc[nH]1 (as salt: chloride) [Compound 47a, 5-[(E)-(5-Fluoro-2,3-dihydro-1H-indene-1-ylidenemethyl]-1H-imidazolium chloride] | 245 °C
Brc1ccc2c(c1)CC/C2=C\c1ccncc1 (as salt: hydrochloride) [Compound 10a, 4-[(E)-(5-Bromo-2,3-dihydro-1H-indane-1-ylidene)methyl]pyridine Hydrochloride] | 266 °C
Fc1ccc2c(c1)CC/C2=C\c1ccncc1 (as salt: hydrochloride) [Compound 6a, 4-[(E)-(5-Fluoro-2,3-dihydro-1H-indane-1-ylidene)methyl]pyridine Hydrochloride] | 224 °C
Fc1ccc2c(c1)CC/C2=C\c1cccnc1 (as salt: hydrochloride) [Compound 5a, 3-[(E)-(5-Fluoro-2,3-dihydro-1H-indane-1-ylidene)methyl]pyridine Hydrochloride] | 245 °C
N#Cc1ccc2c(c1)/C(=C\c1cnc[nH]1)CCC2.O=C(O)C(=O)O | 197 °C

Target: T3, human CYP11B2 (Homo sapiens, UniProt P19099)
T3 sequence (P19099 25-503): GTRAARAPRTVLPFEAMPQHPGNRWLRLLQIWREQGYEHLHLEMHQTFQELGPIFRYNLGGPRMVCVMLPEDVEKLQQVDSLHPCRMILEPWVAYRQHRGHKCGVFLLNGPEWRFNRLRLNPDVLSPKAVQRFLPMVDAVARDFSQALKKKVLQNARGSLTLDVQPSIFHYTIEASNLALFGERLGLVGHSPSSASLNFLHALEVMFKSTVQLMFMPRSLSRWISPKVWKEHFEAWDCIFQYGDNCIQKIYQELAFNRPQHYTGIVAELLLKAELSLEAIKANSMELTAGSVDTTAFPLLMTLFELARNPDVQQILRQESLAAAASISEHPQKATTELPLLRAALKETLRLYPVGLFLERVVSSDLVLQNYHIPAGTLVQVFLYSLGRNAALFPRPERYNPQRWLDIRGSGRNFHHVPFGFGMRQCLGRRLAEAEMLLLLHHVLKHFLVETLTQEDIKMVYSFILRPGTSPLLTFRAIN
Experiment: Screening test in transgenic fission yeast (S. pombe PE1) expressing human CYP11B2
Assay type: cell-based
Design: expressed in transfected cells
Conditions: S. pombe cells which express human CYP11B2; deoxycorticosterone substrate 100 nM; inhibitor 500 nM; read-out: % Inhibition human hCYP11B2
Description: 492.5 μl of this cell suspension was admixed with 5 μl of inhibitor solution (50 μM of the compound to be tested in ethanol or DMSO) and incubated at 32° C. for 15 min. Controls were admixed with 5 μl of ethanol. […] The test was quenched by extracting the sample with 500 μl of EtOAc. After centrifugation (10,000 g, 2 min), the EtOAc phase was removed and evaporated to dryness. […] The reaction of the substrate to form corticosterone was analyzed by HPTLC (see below).
The quantification of the spots for the substrate deoxycorticosterone and the products corticosterone (and, if detectable, 18-hydroxycorticosterone and aldosterone) was effected with the related evaluation program AIDA. […] The calculation of the conversion rate was effected according to equation 1.
The plate was developed twice with the mobile solvent chloroform:methanol:water (300:20:1). Unlabeled 11-deoxycorticosterone and corticosterone were applied as a reference for the CYP11B1 reaction. For the CYP11B2 reaction, 11-deoxycorticosterone, corticosterone, 18-hydroxycorticosterone and aldosterone were used as references. The detection of the unlabeled references was effected at 260 nm. Subsequently, imaging plates (BAS MS2340, for ^14C samples, Raytest, Straubenhardt, Germany) were exposed to the HPTLC plates for 48 h. The imaging plates were scanned with the phosphoimager system Fuji FLA 3000 (Raytest, Straubenhardt, Germany), and the steroids were quantified.

inhibition at 0.5 µM | SMILES
55% | C(=C1/CCc2ccccc21)/c1ccncc1 [Compound 2a, 4-[(E)-2,3-Dihydro-1H-indane-1-ylidenemethyl]pyridine Oxalate]
